{"source": "patent US8697641B2", "about": "“4-amino-4-oxobutanoyl peptide cyclic analogues, inhibitors of viral replication” (Achillion Pharmaceuticals, Inc., priority 2008, dated 2014)"}
{"test_system": "Hepatitis C replicon", "assay": "HCV replicon assay (NPT ELISA readout) in Huh-7 replicon-containing cells", "assay_type": "cell-based, Hepatitis C virus", "settings": "HCV replicon in Huh-7 cells, three days incubation", "protocol": "(§1) Compounds claimed herein are tested for the ability to inhibit viral replication of the Hepatitis C replicon in cultured cells in which the HCV replicon construct has been incorporated. The HCV replicon system was described by Bartenschlager, et. al (Science, 285, pp. 110-113 (1999)). The replicon system is predictive of in vivo anti-HCV activity; compounds that are active in humans uniformly evidence activity in the replicon assay.\n(§2) In this assay HCV replicon containing cells are treated with different concentrations of the test compound to ascertain the ability of the test compound to suppress replication of the HCV replicon. As a positive control, HCV replicon-containing cells are treated with different concentrations of interferon alpha, a known inhibitor of HCV replication. The replicon assay system includes Neomycin Phosphotransferase (NPT) as a component of the replicon itself in order to detect the transcription of replicon gene products in the host cell. Cells in which the HCV replicon is actively replicating have high levels of NPT; the level of NPT is proportional to HCV replication. […] The NPT level of each sample is measured using a captured ELISA.\n(§3) A protocol for testing compounds for the ability to inhibit viral replication of the Hepatitis C replicon cultured cells in which the replicon construct has been incorporated, follows.\n(§4) The HCV replicon contains, 5′-3′, the HCV-IRES, the neomycin phosphotransferase (neo) gene, the IRES of encephalomyocarditis virus, which directs translation of HCV sequences NS3 to NS5B, and the 3′-NTR. The sequence of the HCV replicon has been deposited in GenBank (Accession no. AJ242652).\n(§5) The replicon is transfected into Huh-7 cells using standard methods such as electroporation.\n(§6) The equipment and materials include, but are not limited to, Huh-7 HCV replicon-containing cells, maintenance media (DMEM (Dulbecco's modified Eagle media) supplemented with 10% FBS, L-glutamine, non-essential amino acids, penicillin (100 units/ml), streptomycin (100 micrograms/ml), and 500 micrograms/ml of Geneticin (G418), screening media (DMEM supplemented with 10% FBS, L-glutamine, non-essential amino acids, penicillin (100 units/ml) and streptomycin (100 micrograms/ml)), 96 well tissue culture plates (flat bottom), 96 well plates (U bottom for drug dilution), Interferon alpha for positive control, fixation reagent (such as methanol:acetone), primary antibody (rabbit anti-NPTII), secondary antibody: Eu-N1 l, and enhancement solution.\n(§7) The cells are then seeded onto 96-well plates at a density of 6000-7500 cells/100 microliters/well (6-7.5×10^5 cells/10 ml/plate). The plates are then incubated at 37° C. in a 5% CO2 incubator.\n(§8) HCV replicon-containing cells are rinsed with once PBS once; 2 mls of trypsin are then added. Cells are incubated at 37° C. in a 5% CO2 incubator for 3-5 minutes. 10 mls of complete medium is added to stop the reaction. Cells are blown gently, put into a 15 ml tube, and spun at 1200 rpm for four minutes. The trypsin/medium solution is removed and 5 mls of medium (500 ml DMEM (high glucose)) from BRL catalog #12430-054; 50 mls 10% FBS, 5% Geneticin G418 (50 mg/ml, BRL catalog #10131-035), 5 ml MEM non-essential amino acids (100×BRL #11140-050) and 5 ml pen-strep (BRL #15140-148) is added. The cells and media are mixed carefully\n(§9) Cells are plated with screening medium (500 ml DMEM (BRL #21063-029), 50 ml FBS (BRL #10082-147) and 5 ml MEM non-essential amino acid (BRL #11140-050) at 6000-7500 fcells/100 μl/well of 96 well plate (6-7.5×10^5 cells/10 ml/plate). Plates are placed into 37° C. 5% CO2 incubator overnight.\n(§10) The following morning, drugs (test compounds or interferon alpha) are diluted in 96 well U bottom plates with media or DMSO/media, depending on the final concentration chosen for screening. Generally for 6 concentrations of each test compounds ranging from 10 micromolar to 0.03 micromolar are applied. […]", "units": {"EC50": "nM"}}
{"smiles": "COc1ccc2c(O[C@@H]3C[C@H]4C(=O)N[C@H](C(=O)NS(=O)(=O)C5CC5)CCCCCCCCC[C@H](CC(=O)N5CCCCC5)C(=O)N4C3)cc(-c3ccccc3)nc2c1", "note": "[Compound 52, (3S,13R,17R,18aS)-N-(cyclopropylsulfonyl)-17-(7-methoxy-2-phenylquinolin-4-yloxy)-1,14-dioxo-13-(2-oxo-2-(piperidin-1-yl)ethyl) octadecahydropyrrolo [1,2-a][1,4] diazacyclohexadecine-3-carboxamide]", "EC50": "1000 to 10000"}
{"test_system": "Hepatitis C replicon", "assay": "HCV replicon assay (NPT ELISA readout) in Huh-7 replicon-containing cells", "assay_type": "cell-based, Hepatitis C virus", "settings": "Hepatitis C virus, 72 h; HCV replicon in Huh-7 cells, three days incubation", "protocol": "as §1, §2, §3, §4, §5, §6, §7, §8, §9, §10", "units": {"EC50": "nM"}}
{"smiles": "COc1ccc2c(O[C@@H]3C[C@H]4C(=O)N[C@]5(C(=O)NS(=O)(=O)C6CC6)C[C@H]5/C=C\\CCCCC[C@H](CC(=O)N5CC[C@H](O)C5)C(=O)N4C3)cc(-c3ccccc3)nc2c1", "note": "[Compound 108, (2R,6R,14aR,16aS,Z)-N-(cyclopropylsulfonyl)-6-(2-((S)-3-hydroxypyrrolidin-1-yl)-2-oxoethyl)-2-(7-methoxy-2-phenylquinolin-4-yloxy)-5,16-dioxo-1,2,3,5,6,7,8,9,10,11, 13a,14,14a,15,16,16a-hexadecahydrocyclopropa [e]pyrrolo[1,2-a][1,4] diazacyclopentadecine-14a-carboxamide]", "EC50": "< 1000"}
{"smiles": "COc1ccc2c(O[C@@H]3C[C@H]4C(=O)N[C@]5(C(=O)O)C[C@H]5/C=C\\CCCCC[C@H](CC(=O)N5CCCCC5)C(=O)N4C3)cc(-c3ccccc3)nc2c1", "note": "[Compound 44, (2R,6R,13aS,14aR, 16aS,Z)-2-(7-methoxy-2-phenylquinolin-4-yloxy)-5,16-dioxo-6-(2-oxo-2-(piperidin-1-yl)ethyl)-1,2,3,5,6,7,8,9,10,11, 13a,14,14a,15,16,16a-hexadecahydrocyclopropa [e]pyrrolo[1,2-a][1,4] diazacyclopentadecine-14a-carboxylic acid]", "EC50": "> 10000"}
{"smiles": "COc1ccc2c(O[C@@H]3C[C@H]4C(=O)N[C@H](C(=O)NS(=O)(=O)C5CC5)[C@@H](C)CCCCCCC[C@H](CC(=O)N5CCCCC5)C(=O)N4C3)cc(-c3ccccc3)nc2c1", "note": "[Compound 53, (3S,4S,12R,16R,17aS)-N-(cyclopropylsulfonyl)-16-(7-methoxy-2-phenylquinolin-4-yloxy)-4-methyl-1,13-dioxo-12-(2-oxo-2-(piperidin-1-yl)ethyl)hexadecahydro-1H-pyrrolo[1,2-a][1,4] diazacyclopentadecine-3-carboxamide]", "EC50": "1000 to 10000"}
{"smiles": "CCOC(=O)[C@@]12C[C@H]1/C=C\\CCCCC[C@H](CC(=O)N1CCCCC1)C(=O)N1C[C@H](Oc3cc(-c4ccccc4)nc4cc(OC)ccc34)C[C@H]1C(=O)N2", "note": "[Compound 45, (2R,6R,13aS,14aR, 16aS,Z)-ethyl 2-(7-methoxy-2-phenylquinolin-4-yloxy)-5,16-dioxo-6-(2-oxo-2-(piperidin-1-yl)ethyl)-1,2,3,5,6,7,8,9,10,11, 13a,14,14a,15,16,16a-hexadecahydrocyclopropa [e]pyrrolo[1,2-a][1,4] diazacyclopentadecine-14a-carboxylate]", "EC50": "> 10000"}
{"smiles": "COc1ccc2c(O[C@@H]3C[C@H]4C(=O)N[C@]5(C(=O)NS(=O)(=O)C6CC6)C[C@H]5/C=C\\CCCCC[C@H](CC(=O)N5[C@H](C)CCC[C@@H]5C)C(=O)N4C3)cc(-c3ccccc3)nc2c1", "note": "[Compound 99, (2R,6R,14aR,16aS,Z)-N-(cyclopropylsulfonyl)-6-(2-((2R,6S)-2,6-dimethylpiperidin-1-yl)-2-oxoethyl)-2-(7-methoxy-2-phenylquinolin-4-yloxy)-5,16-dioxo-1,2,3,5,6,7,8,9,10,11, 13a,14,14a,15,16,16a-hexadecahydrocyclopropa [e]pyrrolo[1,2-a][1,4] diazacyclopentadecine-14a-carboxamide]", "EC50": "< 1000"}
{"smiles": "CCS(=O)(=O)N1CCN(C(=O)C[C@H]2CCCCC/C=C\\[C@@H]3C[C@@]3(C(=O)NS(=O)(=O)C3CC3)NC(=O)[C@@H]3C[C@@H](Oc4cc(-c5ccccc5)nc5cc(OC)ccc45)CN3C2=O)CC1", "note": "[Compound 86, (2R,6R,14aR,16aS,Z)-N-(cyclopropylsulfonyl)-6-(2-(4-(ethylsulfonyl)piperazin-1-yl)-2-oxoethyl)-2-(7-methoxy-2-phenylquinolin-4-yloxy)-5,16-dioxo-1,2,3,5,6,7,8,9,10,11, 13a,14,14a,15,16,16a-hexadecahydrocyclopropa [e]pyrrolo[1,2-a][1,4] diazacyclopentadecine-14a-carboxamide]", "EC50": "< 1000"}
{"smiles": "COc1ccc2c(O[C@@H]3C[C@H]4C(=O)NC5(C(=O)O)CC5/C=C\\CCCCC[C@@H](CC(=O)N5CCCCC5)C(=O)N4C3)cc(-c3ccccc3)nc2c1", "note": "(stereo partly drawn) [Compound 43, (2R,6S,16aS,Z)-2-(7-methoxy-2-phenylquinolin-4-yloxy)-5,16-dioxo-6-(2-oxo-2-(piperidin-1-yl)ethyl)-1,2,3,5,6,7,8,9,10,11, 13a,14,14a,15,16,16a-hexadecahydrocyclopropa [e]pyrrolo[1,2-a][1,4] diazacyclopentadecine-14a-carboxylic acid]", "EC50": "1000 to 10000"}
{"smiles": "COc1ccc2c(O[C@@H]3C[C@H]4C(=O)N[C@]5(C(=O)NS(=O)(=O)C6CC6)C[C@H]5/C=C\\CCCCC[C@H](CC(=O)N5CCN(C(=O)OC(C)(C)C)CC5)C(=O)N4C3)cc(-c3ccccc3)nc2c1", "note": "[Compound 67, tert-butyl 4-(2-((2R,6R, 13aS,14aR,16aS,Z)-14a-(cyclopropylsulfonyl-carbamoyl)-2-(7-methoxy-2-phenylquinolin-4-yloxy)-5,16-dioxo-1,2,3,5,6,7,8,9,10,11, 13a,14,14a,15,16,16a-hexadecahydrocyclopropa [e]pyrrolo[1,2-a][1,4]diazacyclopentadecin-6-yl)acetyl)piperazine-1-carboxylate]", "EC50": "< 1000"}
{"smiles": "O=C1N[C@]2(C(=O)NS(=O)(=O)C3CC3)C[C@H]2/C=C\\CCCCC[C@H](CC(=O)N2CCCCC2)C(=O)N2C[C@H](Oc3cc(-c4ccccn4)nc4c5c(ccc34)OCC5)C[C@@H]12", "note": "[Compound 84, (2R,6R,14aR,16aS,Z)-N-(cyclopropylsulfonyl)-5,16-dioxo-6-(2-oxo-2-(piperidin-1-yl)ethyl)-2-(2-(pyridin-2-yl)-8,9-dihydrofuro[2,3-h]quinolin-4-yloxy)-1,2,3,5,6,7,8,9,10,11, 13a,14,14a,15,16,16a-hexadecahydrocyclopropa [e]pyrrolo[1,2-a][1,4] diazacyclopentadecine-14a-carboxamide]", "EC50": "> 10000"}
{"smiles": "COc1ccc2c(O[C@@H]3C[C@H]4C(=O)N[C@]5(C(=O)NS(=O)(=O)C6CC6)C[C@H]5/C=C\\CCCCC[C@H](CC(=O)N5CCCCC5)C(=O)N4C3)cc(-c3nc(C(C)C)cs3)nc2c1", "note": "[Compound 118, (2R,6R,14aR,16aS,Z)-N-(cyclopropylsulfonyl)-2-(2-(4-isopropylthiazol-2-yl)-7-methoxyquinolin-4-yloxy)-5,16-dioxo-6-(2-oxo-2-(piperidin-1-yl)ethyl)-1,2,3,5,6,7,8,9,10,11, 13a,14,14a,15,16,16a-hexadecahydrocyclopropa [e]pyrrolo[1,2-a][1,4] diazacyclopentadecine-14a-carboxamide]", "EC50": "< 1000"}
{"smiles": "O=C1N[C@]2(C(=O)NS(=O)(=O)C3CC3)C[C@H]2/C=C\\CCCCC[C@H](CC(=O)N2CCC(F)(F)C2)C(=O)N2C[C@H](OC(=O)N3CCc4ccccc4C3)C[C@@H]12", "note": "[Compound 114, (2R,6R,14aR, 16aS,Z)-14a-(cyclopropylsulfonyl-carbamoyl)-6-(2-(3,3-difluoropyrrolidin-1-yl)-2-oxoethyl)-5,16-dioxo-1,2,3,5,6,7,8,9,10,11, 13a,14,14a,15,16,16a-hexadecahydrocyclopropa [e]pyrrolo[1,2-a][1,4] diazacyclopentadecin-2-yl 3,4-dihydroisoquinoline-2(1H)-carboxylate]", "EC50": "< 1000"}
